Experimental findings from PubChem BioAssay AID1259407 (Chemical Carcinogenesis Research Information System (CCRIS), 2018) are described below.

Structures are written as SMILES. Activity calls are given as the source filed them. How the calls were made is not given here.

In the data set the test system is CCRIS mutagenicity, Ames/micronucleus/aberration tests. Put plainly: CCRIS mutagenicity studies.
Where [1] appears, read: Test System: AMES SALMONELLA TYPHIMURIUM, Strain/Indicator: TA100, Metabolic Activation: NONE, Method: PREINCUBATION
Setting [2] is: Test System: AMES SALMONELLA TYPHIMURIUM, Strain/Indicator: TA1535, Metabolic Activation: NONE, Method: STANDARD PLATE.
[3] abbreviates: Test System: AMES SALMONELLA TYPHIMURIUM, Strain/Indicator: TA98, Metabolic Activation: NONE, Method: STANDARD PLATE.
The mark [4] stands for this setting: Test System: AMES SALMONELLA TYPHIMURIUM, Strain/Indicator: TA98, Metabolic Activation: RAT, LIVER, S-9, AROCLOR 1254, Method: STANDARD PLATE.
Where [5] appears, read: Test System: AMES SALMONELLA TYPHIMURIUM, Strain/Indicator: TA100, Metabolic Activation: NONE, Method: STANDARD PLATE.
Where [6] appears, read: Test System: AMES SALMONELLA TYPHIMURIUM, Strain/Indicator: TA100, Metabolic Activation: RAT, LIVER, S-9, AROCLOR 1254, Method: STANDARD PLATE.
[7] abbreviates: Test System: AMES SALMONELLA TYPHIMURIUM, Strain/Indicator: TA1538, Metabolic Activation: NONE, Method: STANDARD PLATE.

As to `CC1=CC(=O)C=C(C)C1=O`, the mutagenic call runs as follows: (Test System: AMES SALMONELLA TYPHIMURIUM, Strain/Indicator: TA98, Metabolic Activation: NONE, Method: PREINCUBATION) “inactive; negative”; (Test System: AMES SALMONELLA TYPHIMURIUM, Strain/Indicator: TA98, Metabolic Activation: RAT, LIVER, S-9, PHENOBARBITAL AND 5,6-BENZOFLAVONE, Method: PREINCUBATION) “inactive; negative”; under setting [1], “inactive; negative”; (Test System: AMES SALMONELLA TYPHIMURIUM, Strain/Indicator: TA100, Metabolic Activation: RAT, LIVER, S-9, PHENOBARBITAL AND 5,6-BENZOFLAVONE, Method: PREINCUBATION) “inactive; negative”; (Test System: AMES SALMONELLA TYPHIMURIUM, Strain/Indicator: TA102, Metabolic Activation: NONE, Method: PREINCUBATION) “inactive; negative”; (Test System: AMES SALMONELLA TYPHIMURIUM, Strain/Indicator: TA102, Metabolic Activation: RAT, LIVER, S-9, PHENOBARBITAL AND 5,6-BENZOFLAVONE, Method: PREINCUBATION) “inactive; negative”. Also, the mutagenic call is “inactive; negative” (Test System: AMES SALMONELLA TYPHIMURIUM, Strain/Indicator: TA104, Metabolic Activation: NONE, Method: PREINCUBATION); “inactive; negative” (Test System: AMES SALMONELLA TYPHIMURIUM, Strain/Indicator: TA104, Metabolic Activation: RAT, LIVER, S-9, PHENOBARBITAL AND 5,6-BENZOFLAVONE, Method: PREINCUBATION); “active; positive” (Test System: AMES SALMONELLA TYPHIMURIUM, Strain/Indicator: TA2637, Metabolic Activation: NONE, Method: PREINCUBATION); “inactive; negative” (Test System: AMES SALMONELLA TYPHIMURIUM, Strain/Indicator: TA2637, Metabolic Activation: RAT, LIVER, S-9, PHENOBARBITAL AND 5,6-BENZOFLAVONE, Method: PREINCUBATION).
For `O=C1CCc2c1cc(C(F)(F)F)c1c2ccc2ccccc21`, the mutagenic call (Test System: AMES SALMONELLA TYPHIMURIUM, Strain/Indicator: TA100, Metabolic Activation: RAT, LIVER, S-9, AROCLOR 1254) is “active; positive”.
As to `COC(=O)c1ccc(CN(C)N=O)cc1`, the mutagenic call (Test System: AMES SALMONELLA TYPHIMURIUM, Strain/Indicator: TA1535, Metabolic Activation: HAMSTER, LIVER, S-9, AROCLOR 1254, Method: STANDARD PLATE) is “inactive; negative” and the mutagenic call under setting [2] is “inactive; negative”.
`CC(=O)OCC12OOC1(C)c1ccccc1O2` (centres undefined): under setting [1], the mutagenic call was “active; positive”.
On to `CC(C)N(C(=O)SCC(Cl)=C(Cl)Cl)C(C)C`, for which the mutagenic call by setting is: under setting [3], “inactive; negative”; under setting [4], “active; positive”; under setting [5], “inactive; negative”; under setting [6], “active; positive”; under setting [2], “inactive; negative”; (Test System: AMES SALMONELLA TYPHIMURIUM, Strain/Indicator: TA1535, Metabolic Activation: RAT, LIVER, S-9, AROCLOR 1254, Method: STANDARD PLATE) “active; positive”. Also, the mutagenic call was “inactive; negative” (Test System: AMES SALMONELLA TYPHIMURIUM, Strain/Indicator: TA1537, Metabolic Activation: NONE, Method: STANDARD PLATE); “inactive; negative” (Test System: AMES SALMONELLA TYPHIMURIUM, Strain/Indicator: TA1537, Metabolic Activation: RAT, LIVER, S-9, AROCLOR 1254, Method: STANDARD PLATE); “inactive; negative” under setting [7]; “inactive; negative” (Test System: AMES SALMONELLA TYPHIMURIUM, Strain/Indicator: TA1538, Metabolic Activation: RAT, LIVER, S-9, AROCLOR 1254, Method: STANDARD PLATE).
For `O=[N+]([O-])c1cccc2c1[nH]c1ccccc12`, the mutagenic call under setting [3] was “active; positive”; the mutagenic call under setting [4] is “active; positive”; the mutagenic call (Test System: AMES SALMONELLA TYPHIMURIUM, Strain/Indicator: TA98, Metabolic Activation: RAT, LIVER, S-9, PHENOBARBITAL, Method: STANDARD PLATE) is “active; positive”; the mutagenic call under setting [5] was “inactive; negative”; the mutagenic call (Test System: AMES SALMONELLA TYPHIMURIUM, Strain/Indicator: TA100, Metabolic Activation: RAT, LIVER, S-9, PHENOBARBITAL, Method: STANDARD PLATE) is “inactive; negative”; the mutagenic call under setting [7] is “active; positive”. The mutagenic call by setting is: (Test System: AMES SALMONELLA TYPHIMURIUM, Strain/Indicator: TA1538, Metabolic Activation: RAT, LIVER, S-9, PHENOBARBITAL, Method: STANDARD PLATE) “active; positive”; (Test System: AMES SALMONELLA TYPHIMURIUM, Strain/Indicator: TA1977, Metabolic Activation: NONE, Method: STANDARD PLATE) “inactive; negative”; (Test System: AMES SALMONELLA TYPHIMURIUM, Strain/Indicator: TA1977, Metabolic Activation: RAT, LIVER, S-9, PHENOBARBITAL, Method: STANDARD PLATE) “inactive; negative”.
As for `Cc1ccc(N)c(O)c1`, the mutagenic call runs as follows: (Test System: AMES SALMONELLA TYPHIMURIUM, Strain/Indicator: TA98, Metabolic Activation: HAMSTER LIVER S-9, AROCLOR 1254, Method: STANDARD PLATE) “inactive; negative”; under setting [3], “inactive; negative”; (Test System: AMES SALMONELLA TYPHIMURIUM, Strain/Indicator: TA98, Metabolic Activation: RAT LIVER S-9, AROCLOR 1254, Method: STANDARD PLATE) “inactive; negative”; (Test System: AMES SALMONELLA TYPHIMURIUM, Strain/Indicator: TA100, Metabolic Activation: HAMSTER LIVER S-9, AROCLOR 1254, Method: STANDARD PLATE) “inactive; negative”; under setting [5], “active; positive”; (Test System: AMES SALMONELLA TYPHIMURIUM, Strain/Indicator: TA100, Metabolic Activation: RAT LIVER S-9, AROCLOR 1254, Method: STANDARD PLATE) “inactive; negative”. The mutagenic call was “active; positive. reevaluation of results: positive” (Test System: MOUSE LYMPHOMA, Strain/Indicator: L5178Y (TK+/TK-), Metabolic Activation: NONE, Method: SUSPENSION/PLATE) and “active; positive. reevaluation of results: equivocal” (Test System: MOUSE LYMPHOMA, Strain/Indicator: L5178Y (TK+/TK-), Metabolic Activation: RAT, LIVER, S-9, AROCLOR 1254, Method: SUSPENSION/PLATE).
As for `C=Cc1ccc([N+](=O)[O-])cc1`, the mutagenic call reads like this: under setting [3], “active; positive”; under setting [4], “active; positive”; under setting [5], “active; positive”; under setting [6], “active; positive”.
For the compound `O=[N+]([O-])c1c2c(cc3ccccc13)C=C[C@@H](O)[C@@H]2O`, the mutagenic call is “inactive; negative” under setting [3]; “inactive; negative” (Test System: AMES SALMONELLA TYPHIMURIUM, Strain/Indicator: TA98, Metabolic Activation: RAT, LIVER, S-9, Method: STANDARD PLATE); “inactive; negative” under setting [5]; “inactive; negative” (Test System: AMES SALMONELLA TYPHIMURIUM, Strain/Indicator: TA100, Metabolic Activation: RAT, LIVER, S-9, Method: STANDARD PLATE).
